Residues, ends and D or L forms follow the SMILES beside them. No end group written: not given here. *: point of attachment. X1 = CC(=O)N[C@@H]1[C@@H](O)[C@H](O[C@@H]2O[C@H](CO)[C@@H](O[C@@H]3O[C@H](CO[C@H]4O[C@H](CO)[C@@H](O)[C@H](O)[C@@H]4O[C@@H]4O[C@H](CO)[C@@H](O[C@@H]5O[C@H](CO)[C@H](O)[C@H](O)[C@H]5O)[C@H](O)[C@H]4NC(C)=O)[C@@H](O)[C@H](O[C@H]4O[C@H](CO)[C@@H](O)[C@H](O)[C@@H]4O[C@@H]4O[C@H](CO)[C@@H](O[C@@H]5O[C@H](CO)[C@H](O)[C@H](O)[C@H]5O)[C@H](O)[C@H]4NC(C)=O)[C@@H]3O)[C@H](O)[C@H]2NC(C)=O)[C@@H](CO)O[C@H]1N*; αGalNAc = CC(=O)N[C@@H]1[C@@H](O)[C@@H](O)[C@@H](CO)O[C@@H]1*
Key:
[1] = In vitro cleavage assay of IL-6R (glyco)peptides with recombinant ADAM17; details: human, isolated enzyme; 50 μM peptide, 25 mM Hepes pH 9.0, recombinant catalytic domain of ADAM17, 16 h, 37°C, reverse phase C18 chromatography, peak areas; mean of 3 independent experiments; read-out: intact peptide after incubation with ADAM17 (untreated peptide = 100), mean
Description: (§1) Fig 7 The N- and O-glycosylated sequon adjacent to the cleavage site is of minor importance for IL-6R cleavage. (A) Amino-acid sequence of the two unglycosylated peptides 1(QD) and 2(QA). Peptides were incubated either with or without recombinant ADAM17 for 16 h at 37°C, and the amount of cleaved peptide was analyzed by reversed-phase (RP) chromatography. (B) Amino-acid sequence of the two glycopeptides 3(QD) and 4(QA), which have a GlcNAc attached to the amino-acid residue corresponding to Asn-350 of the IL-6R. Cleavage was determined as described in panel (A). (C) Amino-acid sequence of the two glycopeptides 5(QD) and 6(QA), which have a biantennary N-glycan attached to the amino-acid residue corresponding to Asn-350 of the IL-6R. Cleavage was determined as described in panel (A). (D) Amino-acid sequence of the two glycopeptides 7(QD) and 8(QA), which have a GalNAc attached to the amino-acid residue corresponding toThr-352 of the IL-6R. Cleavage was determined as described in panel (A). (E) Amino-acid sequence of the two glycopeptides 9(QD) and 10(QA), which have a biantennary N-glycan attached to the amino-acid residue corresponding to Asn-350 and a GalNAc attached to the amino-acid residue corresponding toThr-352 of the IL-6R. Cleavage was determined as described in panel (A). All data shown are the mean ± SD from three independent experiments (*p < 0.05, **p < 0.01, ***p < 0.001, compared to the untreated peptide; ^§p < 0.05, compared to the cleaved nonglycosylated peptide).
(§2) Two 1.5 ml reaction tubes were filled with 50 μl peptide (50 μM) solved in 25 mM Hepes (pH 9.0), and 0.5 μl of the recombinant catalytic domain of ADAM17 was added to one of the reaction tubes, whereas the other sample remained untreated. All samples were incubated for 16 h at 37°C. Afterwards, 1,150 μl 0.1% TFA was added to each sample, and the peptides were separated on a reverse phase chromatography column (Multo High Bio-200-C18) from Chromatographie Service (Langerwehe, Germany) using a linear gradient elution with a binary solvent system and a flow rate of 1 ml/min. Solvent A consisted of 0.1% TFA, and solvent B consisted of 100% ACN. After peak integration, peak areas for cleaved and noncleaved peptides were determined.

[2] = target: T1, recombinant catalytic domain of ADAM17 (Homo sapiens, UniProt P78536); experiment: as above; details: 50 μM peptide, 25 mM Hepes pH 9.0, 16 h, 37°C, RP chromatography
T1 construct: catalytic domain (aa Pro-18 to Val-477) of ADAM17; purchased Enzo Life Sciences GmbH (Lörrach, Germany)
T1 sequence (P78536 18-477): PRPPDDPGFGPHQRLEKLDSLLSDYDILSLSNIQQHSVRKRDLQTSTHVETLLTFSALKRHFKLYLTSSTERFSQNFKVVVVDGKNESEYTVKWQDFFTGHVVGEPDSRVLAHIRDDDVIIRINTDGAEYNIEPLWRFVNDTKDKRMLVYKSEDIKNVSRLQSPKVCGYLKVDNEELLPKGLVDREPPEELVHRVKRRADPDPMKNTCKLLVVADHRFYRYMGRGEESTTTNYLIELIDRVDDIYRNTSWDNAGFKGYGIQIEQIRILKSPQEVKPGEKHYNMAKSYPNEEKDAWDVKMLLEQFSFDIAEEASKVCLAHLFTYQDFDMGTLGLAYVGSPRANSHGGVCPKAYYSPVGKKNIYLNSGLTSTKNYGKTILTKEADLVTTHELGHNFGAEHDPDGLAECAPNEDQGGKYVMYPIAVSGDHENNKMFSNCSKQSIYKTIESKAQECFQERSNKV
Description: as §1, §2

[3] = tested on: T2, ADAM17; experiment: as above; details: human, isolated enzyme, pH 9
T2 construct: catalytic domain (aa Pro-18 to Val-477) of ADAM17; purchased Enzo Life Sciences GmbH (Lörrach, Germany)
Description: as §1, §2

[4] = tested on: Ba/F3-gp130-IL-6R_DG cells; experiment: Proliferation in response to IL-6 or Hyper-IL-6 (S4H Fig); type: cell-based; details: highest value = 100, mean of n = 3
Description: (§3) Proliferation of the different Ba/F3-gp130-IL-6R cell lines in response to IL-6 and Hyper-IL-6 and of Ba/F3-gp130 cells in response to IL-6 and the two different recombinant sIL-6R variants was determined using the Cell Titer Blue Cell viability assay reagent (Promega, Karlsruhe, Germany), following the manufacturer’s protocol as described previously. Values were measured in triplicates per experiment, and relative light units (RLU) obtained after 60 min were normalized by subtraction of control values obtained after 0 min. The maximum proliferation was set to 100%, and all other values were calculated accordingly.
Supplementary file pbio.2000080.s004.tif: S4 Fig Mutation of Val-356 is sufficient to block ADAM10-mediated proteolysis of the IL-6R and the Asp358Ala variant. (A) HEK293 cells were transiently transfected with Expression plasmids encoding the wildtype IL-6R (PV) or the double mutants (IE, DG) as indicated. Cells were either treated with 1 μM ionomycin for 1 h or DMSO as vehicle control. sIL-6R was precipitated from the supernatant with concanavalin A-covered Sepharose beads, and cells were lysed. Both were analyzed via Western blot, and β-actin served as loading control. One out of three experiments with similar outcome is shown. (B, C) The experiment was performed as described under (A), but sIL-6R generation was analyzed via ELISA. In (B), the amount of sIL-6R generated after ionomycin-stimulation of the wildtype IL-6R (PV) was set to 100%, and all other values were calculated accordingly. In (C), the amount of sIL-6R without stimulation was considered as constitutive shedding and set to 1 and the increase of sIL-6R was calculated. Data shown are the mean ± SD from at least three independent experiments (*p<0.05, ns = no significant difference). (D-F) HEK293 cells were transiently transfected with expression plasmids encoding the wildtype IL-6R (PV) or the single mutants (DV, IV, PE, PG) as indicated. The experiments were performed as described in (A) to (C). (G) ADAM10-mediated proteolysis of the IL-6R variants depicted in Fig 4I was analyzed as described in (B). (H) Equal numbers of Ba/F3-gp130-IL-6R_DG cells were incubated for 48 h with increasing amounts (0–100 ng/ml) of either IL-6 or Hyper-IL-6. One representative experiment out of three performed is shown (mean ± SD, biological triplicates). (TIF) Click here for additional data file.

[5] = tested on: Ba/F3-gp130-hIL-6R 2N cells; experiment: Proliferation in response to IL-6 or Hyper-IL-6 (S6B Fig); type: cell-based; details: highest value = 100, mean of n = 3
Excerpt: (§4) In order to analyze a functional role for the determined glycans, we created IL-6R mutants that lacked either one, multiple, or all N-glycosylation sites and stably transduced Ba/F3-gp130 cells with these. […] When we analyzed IL-6-dependent proliferation of the individual cell lines, we could not detect a difference between the wild-type IL-6R (Fig 4K), IL-6R mutants lacking one of the five N-glycosylation sites (Fig 6A–6E), IL-6R mutants lacking two (termed 2N), three (3N), or four N-glycosylation sites (4N, S6B–S6D Fig), or the IL-6R mutant that lacked all five N-glycans (5N, Fig 6F). Similarly, mutation of the O-glycosylation site on Thr-352 had no influence on IL-6 signaling (Fig 6G).
as §3
(§5) Supplementary file pbio.2000080.s006.tif: S6 Fig Cell-surface expression and signaling capacity of different N-glycan mutants. (A) Cell-surface expression of the IL-6R on the individual Ba/F3-gp130-IL-6R cell lines. The stably transduced IL-6R mutant is indicated above the histogram. Staining is shown in color, whereas the control staining is shown in gray. One out of three experiments with similar outcome is shown. (B-D) Equal numbers of cells of the indicated Ba/F3-gp130-hIL-6R cell line were incubated for 48 h with increasing amounts (0–100 ng/ml) of either IL-6 or Hyper-IL-6. One representative experiment out of three performed is shown (mean ± SD, biological triplicates). (TIF) Click here for additional data file.

[6] = tested on: Ba/F3-gp130-hIL-6R 3N cells; experiment: Proliferation in response to IL-6 or Hyper-IL-6 (S6C Fig); type: cell-based; details: highest value = 100, mean of n = 3
Excerpt: as §4, §3, §5

[7] = tested on: Ba/F3-gp130-hIL-6R-4N cells; experiment: Proliferation in response to IL-6 or Hyper-IL-6 (S6D Fig); type: cell-based; details: highest value = 100, mean of n = 3
Excerpt: as §4, §3, §5

[8] = tested on: recombinant catalytic domain of ADAM17; experiment: recombinant catalytic domain of ADAM17 in 25 mM Hepes (pH 9.0); details: 37°C, up to 16 h

Compound: CC[C@H](C)[C@H](NC(=O)[C@@H](N)CC(N)=O)C(=O)N[C@@H](CC(C)C)C(=O)N[C@@H](Cc1ccccc1)C(=O)N[C@@H](CCCNC(=N)N)C(=O)N[C@@H](CC(=O)O)C(=O)N[C@@H](CO)C(=O)N[C@@H](C)C(=O)N[C@@H](CC(=O)N[C@@H]1O[C@H](CO)[C@@H](O[C@@H]2O[C@H](CO)[C@@H](O[C@@H]3O[C@H](CO[C@H]4O[C@H](CO)[C@@H](O)[C@H](O)[C@@H]4O[C@@H]4O[C@H](CO)[C@@H](O[C@@H]5O[C@H](CO)[C@H](O)[C@H](O)[C@H]5O)[C@H](O)[C@H]4NC(C)=O)[C@@H](O)[C@H](O[C@H]4O[C@H](CO)[C@@H](O)[C@H](O)[C@@H]4O[C@@H]4O[C@H](CO)[C@@H](O[C@@H]5O[C@H](CO)[C@H](O)[C@H](O)[C@H]5O)[C@H](O)[C@H]4NC(C)=O)[C@@H]3O)[C@H](O)[C@H]2NC(C)=O)[C@H](O)[C@H]1NC(C)=O)C(=O)N[C@@H](C)C(=O)N[C@H](C(=O)N[C@@H](CO)C(=O)N[C@@H](CC(C)C)C(=O)N1CCC[C@H]1C(=O)N[C@H](C(=O)N[C@@H](CCC(N)=O)C(=O)N[C@@H](CC(=O)O)C(=O)N[C@@H](CO)C(=O)N[C@@H](CO)C(=O)N[C@@H](CO)C(=O)N[C@H](C(=O)N1CCC[C@H]1C(=O)N[C@@H](CC(C)C)C(=O)N1CCC[C@H]1C(=O)O)C(C)C)C(C)C)[C@@H](C)O [5(QD)] (H-NILFRDSAD(X1)ATSLPVQDSSSVPLP-OH; N-terminus and C-terminus assumed)
- remaining at 16 h [1]: 102%
- cleavage by recombinant ADAM17, in words [2]: blocked cleavage

Compound: CC[C@H](C)[C@H](NC(=O)[C@@H](N)CC(N)=O)C(=O)N[C@@H](CC(C)C)C(=O)N[C@@H](Cc1ccccc1)C(=O)N[C@@H](CCCNC(=N)N)C(=O)N[C@@H](CC(=O)O)C(=O)N[C@@H](CO)C(=O)N[C@@H](C)C(=O)N[C@@H](CC(N)=O)C(=O)N[C@@H](C)C(=O)N[C@H](C(=O)N[C@@H](CO)C(=O)N[C@@H](CC(C)C)C(=O)N1CCC[C@H]1C(=O)N[C@H](C(=O)N[C@@H](CCC(N)=O)C(=O)N[C@@H](C)C(=O)N[C@@H](CO)C(=O)N[C@@H](CO)C(=O)N[C@@H](CO)C(=O)N[C@H](C(=O)N1CCC[C@H]1C(=O)N[C@@H](CC(C)C)C(=O)N1CCC[C@H]1C(=O)O)C(C)C)C(C)C)[C@@H](C)O[C@H]1O[C@H](CO)[C@H](O)[C@H](O)[C@H]1NC(C)=O [8(QA)] (H-NILFRDSANAT(αGalNAc)SLPVQASSSVPLP-OH)
- remaining at 16 h, 50 μM [3]: 10.8%

Compound: IL-6: recombinant human interleukin-6
- proliferation, Figure S4H, mean ([4]; cytokine 0.001 ng/ml): 4.604
- proliferation, Figure S4H, mean ([4]; cytokine 0.01 ng/ml): 11.7535
- proliferation, Figure S4H, mean ([4]; cytokine 0.1 ng/ml): 45.6464
- proliferation, Figure S4H, mean ([4]; cytokine 1 ng/ml): 77.0141
- proliferation, Figure S4H, mean ([4]; cytokine 10 ng/ml): 92.624
- proliferation, Figure S4H, mean ([4]; cytokine 100 ng/ml): 70.8452
- proliferation, Figure S6B, mean ([5]; cytokine 0.001 ng/ml): 10.1623
- proliferation, Figure S6B, mean ([5]; cytokine 0.01 ng/ml): 21.276
- proliferation, Figure S6B, mean ([5]; cytokine 0.1 ng/ml): 41.189
- proliferation, Figure S6B, mean ([5]; cytokine 1 ng/ml): 78.0666
- proliferation, Figure S6B, mean ([5]; cytokine 10 ng/ml): 86.7819
- proliferation, Figure S6B, mean ([5]; cytokine 100 ng/ml): 79.1326
- proliferation, Figure S6C, mean ([6]; cytokine 0.001 ng/ml): 8.138
- proliferation, Figure S6C, mean ([6]; cytokine 0.01 ng/ml): 15.3684
- proliferation, Figure S6C, mean ([6]; cytokine 0.1 ng/ml): 39.4534
- proliferation, Figure S6C, mean ([6]; cytokine 1 ng/ml): 92.5489
- proliferation, Figure S6C, mean ([6]; cytokine 10 ng/ml): 89.1651
- proliferation, Figure S6C, mean ([6]; cytokine 100 ng/ml): 87.3482
- proliferation, Figure S6D, mean ([7]; cytokine 0.001 ng/ml): 7.259
- proliferation, Figure S6D, mean ([7]; cytokine 0.01 ng/ml): 22.724
- proliferation, Figure S6D, mean ([7]; cytokine 0.1 ng/ml): 61.9479
- proliferation, Figure S6D, mean ([7]; cytokine 1 ng/ml): 88.3209
- proliferation, Figure S6D, mean ([7]; cytokine 10 ng/ml): 84.8559
- proliferation, Figure S6D, mean ([7]; cytokine 100 ng/ml): 63.7775

Compound: NILFRDSANATSLPVQASSSVPLP [2(QA)]
- remaining at 16 h, 50 μM [3]: 0.93%

Compound: NILFRDSANATSLPVQDSSSVPLP [1(QD)]
- remaining at 16 h, 50 μM [3]: 86%

Compound: NILFRDSANATSLPVQDSSSVPLP [3(QD)]
- not cleaved [8]: 91.4% ± 9.4% intact after 16 h

Compound: NILFRDSANATSLPVQDSSSVPLP [5(QD)]
- not cleaved [8]: cleavage blocked; mean 101.852% intact after 16 h

Compound: NILFRDSANATSLPVQDSSSVPLP [7(QD)]
- not cleaved [8]: 91% ± 8% after 16 h

Compound: NILFRDSANATSLPVQDSSSVPLP [9(QD)]
- not cleaved [8]: cleavage blocked; mean 95.585% intact after 16 h

— article PMC5218472 (PLoS Biology, 2017)
